The results in this text go back to PubChem BioAssay AID330 (DTP/NCI, 2004).

The assay relates to P388 leukemia ip, CD2F1 mice, survival T/C. The assay can be described thus: NCI In Vivo Anticancer Drug Screen. Data for tumor model P388 Leukemia (intraperitoneal) in CD2F1 (CDF1) mice. Particulars: endpoint: median survival time, higher = longer survival. The gist of the method: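 Mice carrying the transplanted tumor received test compound or vehicle. Survival was recorded in each group, and the value is the treated-group measurement divided by that of the vehicle-treated control group.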

Where [1] appears, read: dose: 100.0 mg/kg/injection, schedule: Q01DX005 (ip), vehicle: saline with Tween-80.
Where [2] appears, read: dose: 200.0 mg/kg/injection, schedule: Q01DX005 (ip), vehicle: saline with Tween-80.
[3] abbreviates: dose: 60.0 mg/kg/injection, schedule: Q01DX005 (ip), vehicle: saline with Tween-80.
[4] abbreviates: dose: 120.0 mg/kg/injection, schedule: Q01DX005 (ip), vehicle: saline with Tween-80.
The mark [5] stands for this setting: dose: 240.0 mg/kg/injection, schedule: Q01DX005 (ip), vehicle: saline with Tween-80.
[6] abbreviates: dose: 50.0 mg/kg/injection, schedule: Q01DX005 (ip), vehicle: saline with Tween-80.
Where [7] appears, read: dose: 50.0 mg/kg/injection, schedule: Q01DX009 (ip), vehicle: saline with Tween-80.
The mark [8] stands for this setting: dose: 100.0 mg/kg/injection, schedule: Q01DX009 (ip), vehicle: saline with Tween-80.
Setting [9] is: dose: 200.0 mg/kg/injection, schedule: Q01DX009 (ip), vehicle: saline with Tween-80.
Where [10] appears, read: dose: 50.0 mg/kg/injection, schedule: Q01DX005 (ip), vehicle: saline.
Where [11] appears, read: dose: 100.0 mg/kg/injection, schedule: Q01DX005 (ip), vehicle: saline.
The mark [12] stands for this setting: dose: 200.0 mg/kg/injection, schedule: Q01DX005 (ip), vehicle: saline.

“And” between values parts separate entries of the source, which are not always exact repeats. Identical values can stand only once. Inconclusive results and toxic doses are left out.

As for `CN(C=O)C(C(=O)Nc1cccc2c(OC(=O)C(N(C)C=O)(N(C)C=O)N(C)C=O)c(N=Nc3ccc(S(=O)(=O)Nc4nccs4)cc3)cc(N=Nc3ccc(S(=O)(=O)Nc4nccs4)cc3)c12)(N(C)C=O)N(C)C=O` (tested in a mixture with another compound), the T/C reads like this: under setting [1], 114 % of control; under setting [2], 115 % of control; (dose: 500.0 mg/kg/injection, schedule: Q01DX001 (ip), vehicle: saline with Tween-80) 109 % of control; (dose: 1000.0 mg/kg/injection, schedule: Q01DX001 (ip), vehicle: saline with Tween-80) 105 % of control; (dose: 2000.0 mg/kg/injection, schedule: Q01DX001 (ip), vehicle: saline with Tween-80) 113 % of control.
Regarding `COc1cccc2c1C(=O)c1c(O)c3c(c(O)c1C2=O)C[C@@H](C(=O)CO)C[C@@H]3OC1CC(N)C(O)C(C)O1` (some centres undefined), the T/C reads like this: (dose: 6.25 mg/kg/injection, schedule: Q04DX003 (ip), vehicle: water) 105 % of control; (dose: 12.5 mg/kg/injection, schedule: Q04DX003 (ip), vehicle: water) 105 % of control; (dose: 25.0 mg/kg/injection, schedule: Q04DX003 (ip), vehicle: water) 124 % of control.
On to `CCN(CC)C(=O)N(O)C1CCCCC1`, for which the T/C was 105 % of control under setting [3], 97 % of control under setting [4] and 103 % of control under setting [5].
Turning to `CCOC(=O)NC1c2ccccc2Oc2c(C)cccc21` (centres undefined), the T/C is 100 % of control under setting [6], 100 % of control under setting [1] and 100 % of control under setting [2].
With `CCCCCCC(=O)/C=C/c1ccccc1O`, the T/C runs as follows: (dose: 50.0 mg/kg/injection, schedule: Q01DX009 (ip), vehicle: saline) 108 % of control; (dose: 100.0 mg/kg/injection, schedule: Q01DX009 (ip), vehicle: saline) 99 % of control; (dose: 200.0 mg/kg/injection, schedule: Q01DX009 (ip), vehicle: saline) 112 % of control.
`COc1ccc(CC(C#N)c2ccccc2)cc1` (centres undefined): the T/C by setting is: (dose: 25.0 mg/kg/injection, schedule: Q04DX003 (ip), vehicle: saline) 99 % of control; (dose: 50.0 mg/kg/injection, schedule: Q04DX003 (ip), vehicle: saline) 104 % of control; (dose: 100.0 mg/kg/injection, schedule: Q04DX003 (ip), vehicle: saline) 103 % of control; (dose: 200.0 mg/kg/injection, schedule: Q04DX003 (ip), vehicle: saline) 99 % of control.
As for `COc1ccc(C2OC3=Nc4cc(C)c(C)cc4NC3C2=O)cc1OC` (centres undefined), the T/C was 101 % of control under setting [3], 101 % of control under setting [4] and 99 % of control under setting [5].
With `CCC(C)CCC(=O)O` (centres undefined), the T/C was 98 % of control under setting [7], 97 % of control under setting [8] and 99 % of control under setting [9].
As for `O=C1CC2(CCc3ccccc32)C(=O)N1CN1CCN(CCO)CC1` (centres undefined), the T/C by setting is: under setting [10], 106 % of control; under setting [11], 110 % of control; under setting [12], 115 % of control.
For the compound `O=C(Nc1ccc(S(=O)(=O)Nc2nccs2)cc1)c1cccnc1Nc1cccc(Cl)c1`, the T/C under setting [3] is 111 % of control, the T/C under setting [4] is 113 % of control and the T/C under setting [5] was 106 % of control.
On to `CC(=O)O/C1=C\CCCCCCCCCC1`, for which the T/C reads like this: under setting [6], 95 % of control; under setting [1], 90 % of control; under setting [2], 110 % of control.
With `C=C1C(=O)OC2C(OC(C)=O)C1C(OC(=O)C(C)CC)[C@]1(C)C(=O)C=C[C@H]1[C@@H]2C` (some centres undefined), the T/C runs as follows: (dose: 0.78 mg/kg/injection, schedule: Q01DX005 (ip), vehicle: Klucel (hydroxypropylcellulose) (HPC)) 97 % of control; (dose: 1.56 mg/kg/injection, schedule: Q01DX005 (ip), vehicle: Klucel (hydroxypropylcellulose) (HPC)) 101 % of control and 113 % of control; (dose: 3.12 mg/kg/injection, schedule: Q01DX005 (ip), vehicle: Klucel (hydroxypropylcellulose) (HPC)) 111 % of control; (dose: 6.25 mg/kg/injection, schedule: Q01DX005 (ip), vehicle: Klucel (hydroxypropylcellulose) (HPC)) 116 % of control and 122 % of control; (dose: 12.5 mg/kg/injection, schedule: Q01DX005 (ip), vehicle: Klucel (hydroxypropylcellulose) (HPC)) 99 % of control and 102 % of control.
On to `COC/C(Br)=C\SC#N` (tested in a mixture with another compound), for which the T/C (dose: 3.75 mg/kg/injection, schedule: Q01DX005 (ip), vehicle: saline with Tween-80) is 120 % of control and the T/C (dose: 7.5 mg/kg/injection, schedule: Q01DX005 (ip), vehicle: saline with Tween-80) is 122 % of control.
As to `NC(Cc1ccc(O)cc1)C(=O)N/N=C/c1cccc2ccccc12` (centres undefined), the T/C by setting is: under setting [6], 92 % of control; under setting [1], 90 % of control; under setting [2], 89 % of control.
Regarding `COCn1ccnc1C(=O)c1ccco1`, the T/C was 103 % of control under setting [7], 111 % of control under setting [8] and 94 % of control under setting [9].
`COc1c2c(cc3c1OCO3)[C@]13C=C[C@H](OC)C[C@H]1N(C2)CC3O` (some centres undefined): the T/C is 90 % of control (dose: 0.63 mg/kg/injection, schedule: Q01DX009 (ip), vehicle: saline with Tween-80); 100 % of control (dose: 1.25 mg/kg/injection, schedule: Q01DX001 (ip), vehicle: saline); 86 % of control (dose: 1.25 mg/kg/injection, schedule: Q01DX009 (ip), vehicle: saline with Tween-80); 109 % of control (dose: 2.5 mg/kg/injection, schedule: Q01DX001 (ip), vehicle: saline); 90 % of control (dose: 5.0 mg/kg/injection, schedule: Q01DX001 (ip), vehicle: saline with Tween-80).
With `O=[N+]([O-])c1ccc([I+]c2ccccc2)cc1`, the T/C (dose: 12.5 mg/kg/injection, schedule: Q01DX009 (ip), vehicle: saline with Tween-80) is 154 % of control; the T/C (dose: 25.0 mg/kg/injection, schedule: Q01DX005 (ip), vehicle: saline with Tween-80) was 120 % of control and 124 % of control; the T/C (dose: 25.0 mg/kg/injection, schedule: Q01DX009 (ip), vehicle: saline with Tween-80) was 153 % of control; the T/C under setting [7] is 153 % of control; the T/C under setting [3] was 98 % of control; the T/C under setting [1] was 88 % of control.
As to `N#Cc1ccc(OC(=O)Nc2ccc(F)cc2)cc1`, the T/C was 106 % of control under setting [3] and 104 % of control under setting [4].
For `CNC(=O)OC(C)C1CCCCC1OC(=O)NC` (centres undefined), the T/C is 100 % of control under setting [10], 106 % of control under setting [11] and 100 % of control under setting [12].
In the case of `O=C(Nc1ccc2c(c1)oc(=O)c1ccccc12)C(Cl)Cl`, the T/C is, setting by setting: under setting [6], 96 % of control; under setting [1], 98 % of control; under setting [2], 89 % of control.
`Oc1ccc(N=Cc2cccs2)cc1`: the T/C runs as follows: (dose: 25.0 mg/kg/injection, schedule: Q01DX009 (ip), vehicle: Klucel (hydroxypropylcellulose) (HPC)) 110 % of control; (dose: 50.0 mg/kg/injection, schedule: Q01DX009 (ip), vehicle: Klucel (hydroxypropylcellulose) (HPC)) 100 % of control; (dose: 100.0 mg/kg/injection, schedule: Q01DX009 (ip), vehicle: Klucel (hydroxypropylcellulose) (HPC)) 106 % of control; (dose: 200.0 mg/kg/injection, schedule: Q01DX009 (ip), vehicle: Klucel (hydroxypropylcellulose) (HPC)) 105 % of control.
On to `CC(=O)/C=C1\N(C)c2ccccc2C1(C)C`, for which the T/C was 104 % of control (dose: 50.0 mg/kg/injection, schedule: Q01DX005 (ip), vehicle: Klucel (hydroxypropylcellulose) (HPC)); 107 % of control (dose: 100.0 mg/kg/injection, schedule: Q01DX005 (ip), vehicle: Klucel (hydroxypropylcellulose) (HPC)); 100 % of control (dose: 200.0 mg/kg/injection, schedule: Q01DX005 (ip), vehicle: Klucel (hydroxypropylcellulose) (HPC)).
Consider `CCCCCCCCCCCCSC(SCCCCCCCCCCCC)c1ccc(OCC(=O)O)cc1`, for which the T/C (dose: 25.0 mg/kg/injection, schedule: Q04DX003 (ip), vehicle: DMSO) was 96 % of control; the T/C (dose: 50.0 mg/kg/injection, schedule: Q04DX003 (ip), vehicle: DMSO) is 91 % of control; the T/C (dose: 100.0 mg/kg/injection, schedule: Q04DX003 (ip), vehicle: DMSO) was 94 % of control; the T/C (dose: 200.0 mg/kg/injection, schedule: Q04DX003 (ip), vehicle: DMSO) was 91 % of control.
